Measured values reported in publication PMC8776894 (Communications Biology, 2022).

Legend:
[1] = tested on: HT22 hippocampal neuron cells (OGD/R); assay: Live-cell imaging of FITC-labeled VK; assay type: cell-based, mouse; conditions: HT22 cells after OGD/R, 7.35 µM (b12; method b96: 100 nM), 37 °C, confocal fluorescence
Protocol: VK (Gly–Arg–Pro–Hyp–[…]NH2) was labeled with FITC in the N-terminus. VK (100 nM) was added to each well and, after 15 min of incubation at 37 °C, live-cell images were acquired and processed by confocal microscopy (Zeiss LSM 880). Live-cell images were recorded for 90 min. The negative group was FITC treated without labeled VK.
After 24 h, medium in the transwell
Cell cultures, treatment, and OGD.
Experiments were divided into the four

[2] = tested on: brain of MCAO mice; assay: Fluorescence imaging of FITC-labeled VK in brain of stroke mice; assay type: in vivo, mouse; conditions: stroke mice, brains collected at 0, 30, 60, 90, 120 min, confocal microscopy of sections
Protocol: A successful MCAO model was established and these mice were used for subsequent experiments. Immediately after surgery, FITC or FITC-labeled VK were administered intravenously and mice were killed after 30 min to isolate the brain and imaged by an imaging system (IVIS Lumina II). For fluorescent imaging, the brain was immediately collected and kept in the dark for 0, 30, 60, and 90 min after the administration of VK. Frozen sections were prepared according to the above method (seen Morphological Assessment). Images were acquired by confocal microscopy (FV1000 MPE-B, Olympus).

[3] = tested on: MCAO/R mice; conditions: mouse, in vivo
[4] = tested on: AKT phosphorylation; assay: p-AKT immunoblot under OGD/R with HOE140; assay type: cell-based; conditions: HOE140 100 nM, VK 0.0735, 0.735, 7.35 µM
From the text: (5 pictures or pasted objects on this page, not shown here)

[5] = tested on: MCAO/R mice; assay: Evans blue extravasation, BBB permeability; assay type: in vivo, mouse; conditions: VK 300 µg/kg
[6] = tested on: rats; conditions: BK after transient forebrain ischemia in rats; ref not given; cited from earlier work
Protocol: After the onset of cerebral ischemia stroke, ATP levels expeditiously decline during the first 5 min and fall to ~15–30% of the ATP concentration measured in the non-ischemic hemisphere over the first 2 h after ischemia onset. In the present study, VK therapy partially recovered energy metabolism in the ischemic hemisphere as determined by the detection of ATP and LD content. Furthermore, to illustrate the effect of VK on energy metabolism in neurons, the glycolysis and oxidative phosphorylation pathways in neurons were also evaluated by Seahorse after stroke. Increasing evidence indicates tha ...

CC[C@H](C)[C@H](NC(=O)[C@H](CCCNC(=N)N)NC(=O)[C@H](Cc1ccccc1)NC(=O)[C@@H]1CCCN1C(=O)[C@H](CO)NC(=O)[C@H](Cc1ccccc1)NC(=O)CNC(=O)[C@@H]1C[C@@H](O)CN1C(=O)[C@@H]1CCCN1C(=O)[C@H](CCCNC(=N)N)NC(=O)CNC(=S)Nc1ccc2c(c1)C(=O)OC21c2ccc(O)cc2Oc2cc(O)ccc21)C(=O)N[C@@H](CC(=O)O)C(N)=O [FITC-labeled VK]
crossing of the cell membrane, live-cell imaging [1]: partially crossed the cell membrane | distribution in brain regions [2]: seen in the cortex, hippocampus, and striatum

Lys-(des-Arg9-Leu8)-BK [reference compound]
functional injury under combination of VK and B1R antagonist [3]: improved functional injury

HOE140
VK-mediated AKT activation [4]: inhibit VK-mediated AKT activation | BBB integrity under combined administration of VK and HOE140, EB extravasation [5]: damaged the BBB integrity | major pharmacological effects of VK under HOE140 preconditioning [3]: blocked

bradykinin (RPPGFSPFR; Bradykinin; UniProt P01042 381-389, looked up) [BK, endogenous peptide]
neuroprotection [6]: 97%
